Assay results as given in patent publication US10174096B2, “Feline bitter taste receptors and methods” (Applied Food Biotechnology, Inc., priority 2013, dated 2019).

Key:
Type in all cases: cell-based, feline
[1] = test system: fTAS2R38; assay: Fluo-4AM calcium assay, cells transiently expressing fTAS2R38
Procedure: Cell lines that transiently express a desired TAS2R disclosed herein were generated by transfecting the appropriate expression vector, e.g., pcDNA3.1D-FLAGV5His-TAS2R38, constructed as described above in Ex. 2A into cells of a eukaryotic cell line (Life Technologies, Cat# R700-07).
(§1) On day 0, 60,000 cells per well were plated on poly lysine coated, black 96 well plates with clear bottoms (Costar). The following day the cells were transfected with 150 ng TAS2R38 expression vector, e.g., pcDNA3.1D-FLAGV5His (Invitrogen) along with 45 ng of Ga16 chimera containing the last 44 amino acids of rat gustducin (Gα16gust44) with 0.5 ul Lipofectamine 2000 (Invitrogen) per well. Cells were then incubated 22-44 hours at 37° C. 5% CO2.
The expression of fTAS2R38 was evaluated by testing for the presence of a functional response to a known hTAS2R38 ligand (e.g., PTC), determined via automated calcium imaging using a Fluo-4AM (Life Technologies Corporation) Calcium Assay. Fluo-4AM is a fluorescent indicator of intracellular calcium dynamics (change in concentration) and allows monitoring changes in the calcium concentration, particularly an increase in response to receptor activation occurring after agonist exposure.
(§2) Testing for a functional response of fTAS2R38 to the known hTAS2R38 ligands, PTC and PROP, and of fTAS2R43 to the known hTAS2R43 ligands, aloin, denatonium and saccharine), was determined via automated calcium imaging using the Fluo-4AM (Life Technologies Corporation) Calcium Assay.

[2] = test system: fTAS2R38; assay: Fluo-4AM calcium assay, stable G[alpha]16-gustducin 44/TAS2R38 cell line
Excerpt: Fluo-4AM is a fluorescent indicator of intracellular calcium dynamics (change in concentration) and allows monitoring changes in the calcium concentration, particularly an increase in response to receptor activation occurring after agonist exposure.

[3] = test system: fTAS2R43; assay: Fluo-4AM calcium assay, cells transiently expressing fTAS2R43
Procedure: as §1
Generation of cell lines transiently expressing the other fTAS2Rs disclosed herein was analogous.
as §2

For `CCCc1cc(=O)[nH]c(=S)[nH]1` [PROP, 6-n-propylthiouracil], the “stimulation of fTAS2R38” value ([1]; 30 μM PROP, transiently transfected cells) was “not stimulated” and the “stimulation of stable fTAS2R38 cell line” value ([2]; 30 μm PROP) was “not stimulated”.
`NC(=S)Nc1ccccc1` [PTC, phenylthiocarbamide] was tested, and the activation over baseline ([1]; 100 μM PTC, transiently transfected cells) was 81% and the stimulation over baseline ([2]; 100 μM PTC) was 90%.
Molecule `O=C1c2c(O)cccc2C([C@@H]2O[C@H](CO)[C@@H](O)[C@H](O)[C@H]2O)c2cc(CO)cc(O)c21` (stereo partly shown) [aloin] has an activation over baseline ([3]; 300 μM aloin, transiently transfected cells) of 45%.
For `CC[N+](CC)(CC(=O)Nc1c(C)cccc1C)Cc1ccccc1` [denatonium], the activation over baseline ([3]; 1 mM denatonium, transiently transfected cells) was 17%.
`CCCN(CCC)S(=O)(=O)c1ccc(C(=O)O)cc1` [probenecid, p-(dipropylsulfamoyl)benzoic acid] was tested, and the “inhibition of the response to PTC” value ([1]; 1 mM probenecid) was “inhibited”, the “inhibition of the response to aloin” value ([3]; 1 mM probenecid) was “inhibited” and the “inhibition of the response to denatonium” value ([3]; 1 mM probenecid) was “inhibited”.
For `O=C1NS(=O)(=O)c2ccccc21` [saccharin], the “stimulation of fTAS2R43” value ([3]; 6.7 mM saccharin, transiently transfected cells) was “not stimulated”.
